Assay results taken from ChEMBL document CHEMBL1132097, “Fluorobenzamidrazone thrombin inhibitors: influence of fluorine on enhancing oral absorption” (Bioorg Med Chem Lett, 1999).
pKi: −log10 of the molar value.

Assays:
[1] = Absorption behavior was judged by the peak blood concentration determined after oral dose of 30 mg/kg in rats.; type: ADME, organism-based; parameters: dose 30 mg/kg, route oral; settings: rat
[2] = Absorption behavior was judged by the area under the curve, determined after oral dose of 30 mg/kg in rats.; type: ADME, organism-based; parameters: dose 30 mg/kg, route oral; settings: rat, in vivo
[3] = target: T1, Prothrombin (Homo sapiens, UniProt P00734); experiment: Inhibitory constant against human thrombin was determined in vitro.
[4] = target: T2, Serine protease 1 (Bos taurus, UniProt P00760); experiment: Inhibitory constant against bovine trypsin was determined in vitro.
T2 sequence (P00760 whole entry): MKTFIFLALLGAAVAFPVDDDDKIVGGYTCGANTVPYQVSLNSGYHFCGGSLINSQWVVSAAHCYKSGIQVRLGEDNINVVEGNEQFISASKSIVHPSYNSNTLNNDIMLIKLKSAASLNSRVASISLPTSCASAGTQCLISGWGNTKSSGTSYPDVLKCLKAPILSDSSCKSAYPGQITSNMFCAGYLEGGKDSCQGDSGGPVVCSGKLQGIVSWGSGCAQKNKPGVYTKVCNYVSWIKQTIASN

[5] = target: T1, Prothrombin; experiment: Inhibitory constant against human thrombin was determined in vitro
[6] = target: T2, Serine protease 1; experiment: Inhibitory constant against bovine trypsin was determined in vitro

SMILES	Cmax [1]	AUC [2]	pKi [3]	pKi [4]	pKi [5]	pKi [6]
CN(C(=O)[C@H](Cc1ccc(C(=N)NN)cc1)NS(=O)(=O)c1ccc2ccccc2c1)C1CCCC1	1610 nM	2.33 µM·h	9.40	4.48	–	–
COc1ccc2cc(S(=O)(=O)N[C@@H](Cc3ccc(C(N)=NN)cc3F)C(=O)N(C)C3CCCC3)ccc2c1	2410 nM	3.28 µM·h	9.70	5.70	–	–
CCCc1ccc(S(=O)(=O)N[C@@H](Cc2ccc(C(N)=NN)cc2F)C(=O)N(C)C2CCCC2)cc1	1350 nM	2.68 µM·h	9.15	5.40	–	–
CCCc1ccc(S(=O)(=O)N[C@@H](Cc2ccc(C(=N)NN)c(F)c2)C(=O)N(C)C2CCCC2)cc1	2780 nM	4.17 µM·h	8.74	4.66	–	–
CN(C(=O)[C@H](Cc1ccc(C(=N)NN)cc1F)NS(=O)(=O)c1ccc2c(c1)CCCC2)C1CCCC1	1030 nM	1.37 µM·h	9.30	5.52	–	–
CCCc1ccc(S(=O)(=O)N[C@@H](Cc2ccc(C(N)=NN)cc2)C(=O)N(C)C2CCCC2)cc1	1170 nM	2.23 µM·h	–	–	9.70	5.46
CN(C(=O)[C@H](Cc1ccc(C(N)=NN)cc1)NS(=O)(=O)c1ccc2c(c1)CCCC2)C1CCCC1	360 nM	0.817 µM·h	10.00	5.34	–	–
CN(C(=O)[C@H](Cc1ccc(C(=N)NN)cc1F)NS(=O)(=O)c1ccc2ccccc2c1)C1CCCC1	1630 nM	1.83 µM·h	8.70	4.96	–	–
COc1ccc2cc(S(=O)(=O)N[C@@H](Cc3ccc(C(N)=NN)cc3)C(=O)N(C)C3CCCC3)ccc2c1	1130 nM	2.62 µM·h	10.22	5.04	–	–
CN(C(=O)[C@H](Cc1ccc(C(N)=NN)c(F)c1)NS(=O)(=O)c1ccc2ccccc2c1)C1CCCC1	4130 nM	6.67 µM·h	8.26	4.60	–	–
CN(C(=O)[C@H](Cc1ccc(C(N)=NN)c(F)c1)NS(=O)(=O)c1ccc2c(c1)CCCC2)C1CCCC1	1340 nM	1.63 µM·h	9.05	4.60	–	–
